From patent US7825103B2, “Pyrimidine nucleoside compound or its salt” (Taiho Pharmaceutical Co., Ltd., priority 2005, dated 2010)
Counter-ions that a name gives are not always drawn.

Key:
[1] = system: Human large intestine cancer cell strain KM20C; assay: Anti-tumor test using nude mouse subcutaneous implantation system with peroral administration of CNDAC compound; type: in vivo, BALB/cA Jcl-nu mice; settings: peroral once a day for 14 days, dose equivalent by mole to 18 mg/kg/day of CNDAC, day 29 after grouping, KM20C subcutaneous implant
Experimental: (§1) Human large intestine cancer cell strain KM20C was subcutaneously subcultured in BALB/cA Jcl-nu mice (CLEA Japan, Inc.), and the resultant cancer tissues were cut into 2 mm dice fragments. Each of the fragments was subcutaneously implanted to a 6-week-old BALB/cA Jcl-nu mouse at the back thereof. On day 14 after the implantation, large and small diameters of the resultant tumor were measured, and the volume of the tumor was calculated by the following equation. The mice were grouped (6 animals per group) so that the groups were roughly equal in terms of average tumor volume. Vt=½(Vl)×(Vs)^2 (Equation 1) In the equation, Vt represents tumor volume, Vl represents large diameter of tumor, and Vs represents small diameter of tumor.
Each CNDAC compound was dissolved or suspended in 0.5% hydroxypropyl methyl cellulose solution which had been buffered with 100 mM citrate buffer (pH 6.0). From the next day after grouping, the mixture was perorally administered to each mouse once a day for consecutive 14 days in a dose which is equivalent, by mole, to 18 mg/kg/day of CNDAC.
On day 29 after the grouping, large and small diameters of the subcutaneously implanted tumor of each mouse were measured, and relative tumor volume (RTV) and inhibition rate (IR) were calculated by the following equations to evaluate anti-tumor effect of the compound. RTV=Vt1/Vt2 (Equation 2) In the equation, RTV represents ratio of tumor volume, Vt1 represents tumor volume measured on the day of determination, and […]. IR(%)=[1−(RTVtest)/(RTVcont)]×100 (Equation 3) In the equation, IR represents tumor growth inhibition rate, RTVtest represents mean RTV value of a drug-administered group, and RTVcont represents mean RTV value of a non-treatment group.

[2] = system: Human large intestine cancer cell strain KM20C; assay: Anti-tumor test using nude mouse subcutaneous implantation system, peroral administration in an equitoxic dose; type: in vivo, BALB/cA Jcl-nu mice; settings: peroral once a day for 14 days, 6 animals per group, FIG. 1
Experimental: as §1, with “15” for “14”, “through use of” for “by”, “the” for “the groups were roughly equal in terms of”, “volume was common to each group.” for “volume.”, “5)” for “1)”
CNDAC, P-CNDAC, or Compound 19 was dissolved or suspended in 0.5% hydroxypropyl methyl cellulose solution which had been buffered with 100 mM citrate buffer (pH 5.0). From the next day of grouping, the mixture was perorally administered to each mouse once a day for consecutive 14 days in an equitoxic dose.
Large and small diameters of the subcutaneously implanted tumor of each mouse were measured twice a week, and relative tumor volume (RTV) was calculated as an index indicating tumor growth through use of the following equations to evaluate anti-tumor effect of the compound. RTV=Vt1/Vt2 (Equation 6) In the equation, RTV represents ratio of tumor volume, Vt1 represents tumor volume measured on the day of determination, and Vt2 represents tumor volume measured on the day of grouping.

[3] = Mus musculus, sc, 696 h, read-out: IR (%) tumor growth inhibition rate

Row | SMILES | melting point | inhibition in vivo [1, 3] | other results
1 | CC(C)[C@H](N)C(=O)OC[C@H]1O[C@@H](n2ccc(N)nc2=O)[C@@H](C#N)[C@@H]1O[Si](C)(C)C(C)(C)C(C)C (as salt: trifluoroacetate) [Example 31, 3′-O-Dimethylthexylsilyl-5′-O-(L-valyl)-2′-cyano-2′-deoxy-1-β-D-arabinofuranosylcytosine bis(trifluoroacetate)] | 118 to 120 °C | – | –
2 | C[Si](C)(OC[C@H]1O[C@@H](n2ccc(N)nc2=O)[C@@H](C#N)[C@@H]1O)C1CCCCC1 | 152 to 153 °C | – | –
3 | N#C[C@H]1[C@H](O)[C@@H](CO[Si](c2ccccc2)(c2ccccc2)c2ccccc2)O[C@H]1n1ccc(N)nc1=O | 203 °C (dec.) | – | –
4 | CC[Si](CC)(O[C@H]1[C@H](C#N)[C@H](n2ccc(N)nc2=O)O[C@@H]1CO)C(C)C [Example 21, 3′-O-Diethylisopropylsilyl-2′-cyano-2′-deoxy-1-β-D-arabinofuranosylcytosine] | 161 to 163 °C | 85% | –
5 | CC(C)(C)[Si]1(C(C)(C)C)OC[C@H]2O[C@@H](n3ccc(N)nc3=O)[C@@H](C#N)[C@@H]2O1 [Example 18, 3′,5′-O-(Di-tert-butylsilanediyl)-2′-cyano-2′-deoxy-1-β-D-arabinofuranosylcytosine] | 139 to 140 °C | 69% | –
6 | N#C[C@H]1[C@H](O)[C@@H](CO[Si](Cc2ccccc2)(Cc2ccccc2)Cc2ccccc2)O[C@H]1n1ccc(N)nc1=O | 188 °C (dec.) | – | –
7 | CCCCCCCC[Si](C)(C)O[C@H]1[C@H](C#N)[C@H](n2ccc(N)nc2=O)O[C@@H]1CO [Example 23, 3′-O-(Dimethyl-n-octylsilyl)-2′-cyano-2′-deoxy-1-β-D-arabinofuranosylcytosine] | 153 to 154 °C | – | –
8 | C[Si](C)(OC[C@H]1O[C@@H](n2ccc(N)nc2=O)[C@@H](C#N)[C@@H]1O)c1ccccc1 | 139 to 140 °C | – | –
9 | CC(C)C(C)(C)[Si](C)(C)O[C@H]1[C@H](C#N)[C@H](n2ccc(N)nc2=O)O[C@@H]1CO.CS(=O)(=O)O | 203 to 204 °C | – | –
10 | CC(C)C[Si](CC(C)C)(CC(C)C)OC[C@H]1O[C@@H](n2ccc(N)nc2=O)[C@@H](C#N)[C@@H]1O [Example 7, 5′-O-Triisobutylsilyl-2′-cyano-2′-deoxy-1-β-D-arabinofuranosylcytosine] | 152 °C | 79% | –
11 | CC(C)C(C)(C)[Si](C)(C)OC[C@H]1O[C@@H](n2ccc(N)nc2=O)[C@H](C#N)[C@@H]1O | 187 to 187.5 °C | – | –
12 | CC(C)C[Si](CC(C)C)(CC(C)C)O[C@H]1[C@H](C#N)[C@H](n2ccc(N)nc2=O)O[C@@H]1CO | 101 to 102 °C | – | –
13 | CC(C)(C)[Si](C)(C)OC[C@H]1O[C@@H](n2ccc(N)nc2=O)[C@@H](C#N)[C@@H]1O [Example 1, 5′-O-(tert-Butyldimethylsilyl)-2′-cyano-2′-deoxy-1-β-D-arabinofuranosylcytosine] | 185 °C (dec.) | 75% | –
14 | CC(C)[Si](OC[C@H]1O[C@@H](n2ccc(N)nc2=O)[C@@H](C#N)[C@@H]1O)(C(C)C)C(C)C [Example 2, 5′-O-Triisopropylsilyl-2′-cyano-2′-deoxy-1-β-D-arabinofuranosylcytosine] | 177 °C (dec.) | 65% | –
15 | CC(C)(C)[Si](OC[C@H]1O[C@@H](n2ccc(N)nc2=O)[C@@H](C#N)[C@@H]1O)(c1ccccc1)c1ccccc1 | 187 °C | – | –
16 | CC(C)[C@H](N)C(=O)OC[C@H]1O[C@@H](n2ccc(N)nc2=O)[C@@H](C#N)[C@@H]1O[Si](C)(C)C(C)(C)C (as salt: trifluoroacetate) [Example 32, 5′-O-(L-Valyl)-3′-O-(tert-butyldimethylsilyl)-2′-cyano-2′-deoxy-1-β-D-arabinofuranosylcytosine bis(trifluoroacetate)] | 118 to 120 °C | – | –
17 | CC(C)C(C)(C)[Si](C)(C)OC[C@H]1O[C@@H](n2ccc(N)nc2=O)[C@@H](C#N)[C@@H]1O [Example 6, 5′-O-Dimethylthexylsilyl-2′-cyano-2′-deoxy-1-β-D-arabinofuranosylcytosine] | 188 °C (dec.) | 82% | –
18 | CCCCCCCCCCCCCCCC(=O)Nc1ccn([C@@H]2O[C@H](CO)[C@@H](O)[C@@H]2C#N)c(=O)n1 [P-CNDAC, 4-N-palmitoyl-2′-cyano-2′-deoxy-1-β-D-arabinofuranosylcytosine, reference compound] | – | – | deletion of tumor [2]: no deletion of tumor
19 | CC(C)[Si](O[C@H]1[C@H](C#N)[C@H](n2ccc(N)nc2=O)O[C@@H]1CO)(C(C)C)C(C)C [Example 27, 3′-O-Triisopropylsilyl-2′-cyano-2′-deoxy-1-β-D-arabinofuranosylcytosine] | 162 to 163 °C | 85% | –
20 | CC(C)C(C)(C)[Si](C)(C)O[C@H]1[C@@H](C#N)[C@H](n2ccc(N)nc2=O)O[C@@H]1CO | 179 to 182 °C | – | –
21 | CCCCCCCC[Si](C)(C)OC[C@H]1O[C@@H](n2ccc(N)nc2=O)[C@@H](C#N)[C@@H]1O [Example 10, 5′-O-(Dimethyl-n-octylsilyl)-2′-cyano-2′-deoxy-1-β-D-arabinofuranosylcytosine] | 142 °C | 68% | –
22 | CC[Si](CC)(OC[C@H]1O[C@@H](n2ccc(N)nc2=O)[C@@H](C#N)[C@@H]1O)C(C)C [Example 3, 5′-O-Diethylisopropylsilyl-2′-cyano-2′-deoxy-1-β-D-arabinofuranosylcytosine] | – | – | IR (%) tumor growth inhibition rate [1]: 82%
23 | CC(C)[C@H](N)C(=O)OC[C@H]1O[C@@H](n2ccc(N)nc2=O)[C@@H](C#N)[C@@H]1O[Si](C)(C)C(C)(C)C(C)C [Example 31, 3′-O-Dimethylthexylsilyl-5′-O-(L-valyl)-2′-cyano-2′-deoxy-1-β-D-arabinofuranosylcytosine bis(trifluoroacetate)] | – | 89% | –
24 | CC(C)[C@H](N)C(=O)OC[C@H]1O[C@@H](n2ccc(N)nc2=O)[C@@H](C#N)[C@@H]1O[Si](C)(C)C(C)(C)C [Example 32, 5′-O-(L-Valyl)-3′-O-(tert-butyldimethylsilyl)-2′-cyano-2′-deoxy-1-β-D-arabinofuranosylcytosine bis(trifluoroacetate)] | – | 85% | –
25 | CC(C)C(C)(C)[Si](C)(C)O[C@H]1[C@H](C#N)[C@H](n2ccc(N)nc2=O)O[C@@H]1CO.O=C(O)C(F)(F)F [Example 25, 3′-O-Dimethylthexylsilyl-2′-cyano-2′-deoxy-1-β-D-arabinofuranosylcytosine trifluoroacetate] | 151 to 154 °C | – | –
26 | N#C[C@H]1[C@H](O)[C@@H](CO)O[C@H]1n1ccc(N)nc1=O [CNDAC, 2′-cyano-2′-deoxy-1-β-D-arabinofuranosylcytosine, reference compound] | – | – | inhibition in vivo at 18 mg/kg/day [1, 3]: 46%; deletion of tumor [2]: no deletion of tumor
27 | CC(C)(C)[Si](C)(C)O[C@H]1[C@H](C#N)[C@H](n2ccc(N)nc2=O)O[C@@H]1CO.O=C(O)C(F)(F)F [Example 24, 3′-O-(tert-Butyldimethylsilyl)-2′-cyano-2′-deoxy-1-β-D-arabinofuranosylcytosine trifluoroacetate] | 163 to 165 °C | 83% | –
28 | CC(C)C(C)(C)[Si](C)(C)O[C@H]1[C@H](C#N)[C@H](n2ccc(N)nc2=O)O[C@@H]1CO (as salt: hydrochloride) [Example 26, 3′-O-Dimethylthexylsilyl-2′-cyano-2′-deoxy-1-β-D-arabinofuranosylcytosine hydrochloride] | 206 °C (dec.) | – | –
